Assay results: US11413278B2, “Compounds and methods for promoting stress resistance” (priority 2015, dated 2022)
Entries after “also recorded” stand apart in the source; their conditions may differ. Like-named read-outs stand apart in the source and are kept apart here.

Tests used:
human PARP1 = molecular target: T1, human PARP1 (Homo sapiens, UniProt P09874); assay: PARP inhibitor assay (HT Fluorescent Homogeneous PARP Inhibition Assay Kit); type: biochemical; conditions: score
T1 construct: purchased Trevigen
Summary of the method: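 Human PARP1 with NAD and activated DNA, compounds at 10 μM final, 30 min at room temperature in dark. Resazurin/diaphorase cycling mix then added for 1 hr in dark before stop buffer; fluorescent homogeneous kit read-out.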

FOXO3 = assay: qPCR analysis of FOXO3-regulated genes; type: cell-based, human; conditions: for fold induction at 10 µM: Homo sapiens; for K = Sestrin induction: score
Summary of the method: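 WI-38 cells treated with compound at 10 μM for 24 h, followed by Cells-to-Ct RT-qPCR of FOXO3 target genes normalised to B2M, PPIA and GAPDH. FOXO3 or NRF2 dependence tested by prior 10 nM siRNA knockdown (36 h transfection, compound added ~24 h after replating).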

NRF2 = assay: qPCR analysis of NRF2-regulated genes; type: cell-based, human; conditions: for fold induction at 10 µM: Homo sapiens
Summary of the method: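 WI-38 cells treated with compound at 10 μM for 24 hrs, then processed by Cells-to-Ct for RNA isolation, RT and qPCR of NRF2-regulated genes (HMOX1, NQO1, GCLC, GSTM1). Expression normalized to B2M, PPIA and GAPDH; siRNA knockdown of FOXO3 or NRF2 (10 nM) preceded treatment in some runs.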

C. elegans = C. elegans lifespan assays (liquid and plate); type: in vivo, Caenorhabditis elegans; conditions: for ILS at 60 µM / ILS at 66 µM: Caenorhabditis elegans; for O = Life span- extending scores in worms: score scale 0 to 2, 4 to 6 independent trials; for M = Lifespan-extending scores in worms: summary score
WI-38 cells = conditions: for PI cell-death imaging without H2O2 (indicating potential toxicity): Assay 8(k), without H2O2, at 10 uM; for Percentage of propidium iodide-positive (dead) cells under normal conditions (qualitative) / PI-positive dead cells under normal conditions: WI-38, no H2O2; for PI-positive dead cells under normal conditions: control 0.4±0.2%; for Percentage of propidium iodide-positive dead cells (no H2O2 stress treatment), at 10 uM: negative control 0.41% ± 0.23%
Method: WI-38 cells were seeded on 384-well plates for 24 hrs and then incubated with small molecules for 24 hrs. […] Images were collected on an INCell Analyzer 2000 (GE) and analyzed with the Developer software.

[1] = 24 h, Assay 10(m), at 10 uM, qPCR, read-out: Induction of FOXO3-regulated genes: DDB1 normalized fold-change
[2] = 24 h, Assay 10(m), at 10 uM, qPCR, read-out: Induction of FOXO3-regulated genes: SESN1 normalized fold-change
[3] = WI-38, 24 h, read-out: SESN1 expression
[4] = WI-38 cells, 10 μM, 24 hrs, n=4, qPCR normalized by B2M, read-out: DDB1 Normalized fold change
[5] = WI-38 cells, 10 μM, 24 hrs, n=4, qPCR normalized by B2M, read-out: GADD45A Normalized fold change
[6] = WI-38 cells, 10 μM, 24 hrs, n=4, qPCR normalized by B2M, read-out: SESN1 Normalized fold change
[7] = qPCR, WI-38 cells, 10 μM, n=4, 24 hrs, normalized by B2M, read-out: CAT Normalized fold change
[8] = qPCR, WI-38 cells, 10 μM, n=4, 24 hrs, normalized by B2M, read-out: SOD2 Normalized fold change
[9] = qPCR, WI-38 cells, 10 μM, n=4, 24 hrs, normalized by B2M, read-out: TXNIP Normalized fold change
[10] = WI-38 cells, 10 μM, 24 hrs, n=4, qPCR normalized by B2M, read-out: GCLC Normalized fold change
[11] = WI-38 cells, 10 μM, 24 hrs, n=4, qPCR normalized by B2M, read-out: GSTM1 Normalized fold change
[12] = WI-38 cells, 10 μM, 24 hrs, n=4, qPCR normalized by B2M, read-out: HMOX1 Normalized fold change
[13] = WI-38 cells, 10 μM, 24 hrs, n=4, qPCR normalized by B2M, read-out: NQO1 Normalized fold change
[14] = in liquid, wild type, with FuDR, 1.0 × 10^9 bacteria/ml, read-out: relative change of mean lifespan vs control, Trial 1
[15] = in liquid, wild type, with FuDR, 2.5 × 10^9 bacteria/ml, read-out: relative change of mean lifespan vs control, Trial 2
[16] = on plate, CF512 temperature-sensitive sterile animals, without FuDR, 2.0 × 10^10 bacteria/ml, read-out: relative change of mean lifespan vs control, Trial 3
[17] = Assay 2(z), 1.0 × 10^9 bacteria/ml, wild type + FuDR (2012 July), read-out: Lifespan assay in liquid
[18] = Assay 3(aa), 2.5 × 10^9 bacteria/ml, wild type + FuDR, read-out: Lifespan assay in liquid
[19] = Assay 4(ab), 2.0 × 10^10 bacteria/ml, CF512 worms, no FuDR, read-out: Lifespan assay on plates

T1 sequence (P09874 whole entry): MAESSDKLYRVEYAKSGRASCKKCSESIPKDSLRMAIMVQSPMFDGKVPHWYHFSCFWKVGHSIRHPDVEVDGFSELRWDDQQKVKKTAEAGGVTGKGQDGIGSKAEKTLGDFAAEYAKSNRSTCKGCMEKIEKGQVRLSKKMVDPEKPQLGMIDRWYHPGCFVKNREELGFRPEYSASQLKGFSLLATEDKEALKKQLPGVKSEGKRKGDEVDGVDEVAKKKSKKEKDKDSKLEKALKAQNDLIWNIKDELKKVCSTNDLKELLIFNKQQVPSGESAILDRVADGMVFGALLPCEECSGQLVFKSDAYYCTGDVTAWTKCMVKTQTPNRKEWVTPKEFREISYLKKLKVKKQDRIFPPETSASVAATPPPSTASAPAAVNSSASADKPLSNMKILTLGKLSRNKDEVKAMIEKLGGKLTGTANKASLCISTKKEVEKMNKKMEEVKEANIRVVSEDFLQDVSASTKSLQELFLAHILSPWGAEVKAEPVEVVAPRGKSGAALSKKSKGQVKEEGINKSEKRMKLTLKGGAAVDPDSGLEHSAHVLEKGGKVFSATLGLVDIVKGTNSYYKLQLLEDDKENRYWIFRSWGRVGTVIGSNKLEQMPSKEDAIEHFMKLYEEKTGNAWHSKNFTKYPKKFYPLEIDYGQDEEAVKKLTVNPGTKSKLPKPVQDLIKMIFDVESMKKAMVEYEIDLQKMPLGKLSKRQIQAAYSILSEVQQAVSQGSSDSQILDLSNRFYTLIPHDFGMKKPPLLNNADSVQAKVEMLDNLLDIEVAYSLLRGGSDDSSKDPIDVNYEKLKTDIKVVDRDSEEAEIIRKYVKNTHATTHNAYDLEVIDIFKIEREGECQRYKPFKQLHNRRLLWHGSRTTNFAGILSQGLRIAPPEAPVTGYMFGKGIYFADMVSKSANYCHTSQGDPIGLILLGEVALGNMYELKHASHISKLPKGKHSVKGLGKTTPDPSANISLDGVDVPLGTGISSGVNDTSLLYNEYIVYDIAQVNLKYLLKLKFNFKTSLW

CCc1ccccc1NC(=O)c1ccc([N+](=O)[O-])o1 [Gr-1C]
L = PARP inhibition (human PARP1): 0 | Induction of at least two of five FOXO3-regulated genes (SOD2, GADD45A, CAT, DDB1, TXNIP) (FOXO3; 10 μM, 24 hrs, WI-38): significant induction; also recorded: induce FOXO3-regulated genes | E = Potential FOXO3 Activation (FOXO3; 2-point score): 0 | fold induction at 10 µM (FOXO3; 24 h, Assay 10(m), at 10 uM, qPCR, read-out: Induction of FOXO3-regulated genes: CAT normalized fold-change): 1.41 | fold induction at 10 µM (FOXO3; [1]): 1.14 | fold induction at 10 µM (FOXO3; 24 h, Assay 10(m), at 10 uM, qPCR, read-out: Induction of FOXO3-regulated genes: GADD45A normalized fold-change): 0.6 | fold induction at 10 µM (FOXO3; [2]): 1.59 | fold induction at 10 µM (FOXO3; [3]): > 1.5 | fold induction at 10 µM (FOXO3; 10 μM, 24 hrs, WI-38 cells, qPCR, normalized to B2M, n = 4, read-out: CAT expression, normalized fold change (FOXO3-regulated gene)): 1.44 | fold induction at 10 µM (FOXO3; [4]): 1.4 | fold induction at 10 µM (FOXO3; [5]): 0.727 | fold induction at 10 µM (FOXO3; [6]): 1.9 | fold induction at 10 µM (FOXO3; fold change, qPCR, WI-38 cells, 10 μM, 24 hrs, read-out: Summary of effects on FOXO3-regulated genes: CAT): 1.44 | fold induction at 10 µM (FOXO3; [7]): 1.44 | fold induction at 10 µM (FOXO3; [8]): 1.33 | fold induction at 10 µM (FOXO3; [9]): 1.23 | K = Sestrin induction (FOXO3): 0 | E = Potential FOXO3 Activation (FOXO3; summary score): 0 | Induction of at least two NRF2-regulated genes (HMOX1, NQO1, GCLC, GSTM1) (NRF2; 10 μM, 24 hrs, WI-38): could induce expression of at least two genes | F = Potential NRF2 Activation (NRF2; 2-point score): 0 | fold induction at 10 µM (NRF2; 24 h, Assay 12(o), at 10 uM, qPCR, read-out: Induction of NRF2-regulated genes: GCLC normalized fold-change): 1.65 | fold induction at 10 µM (NRF2; 24 h, Assay 12(o), at 10 uM, qPCR, read-out: Induction of NRF2-regulated genes: NQO1 normalized fold-change): 1.33 | fold induction at 10 µM (NRF2; rounded fold change, WI-38 cells, 10 μM, 24 hrs (RP29 for Gr-4D), read-out: Summary of effects on NRF2-regulated genes: NQO1): 1.46 | fold induction at 10 µM (NRF2; rounded fold change, WI-38 cells, 10 μM, 24 hrs, read-out: Summary of effects on NRF2-regulated genes: GCLC): 1.82 | fold induction at 10 µM (NRF2; 10 μM, 24 hrs, WI-38 cells, qPCR, normalized to B2M, n = 4, read-out: GCLC expression, normalized fold change (NRF2-regulated gene)): 1.82 | fold induction at 10 µM (NRF2; 10 μM, 24 hrs, WI-38 cells, qPCR, normalized to B2M, n = 4, read-out: NQO1 expression, normalized fold change (NRF2-regulated gene)): 1.46 | fold induction at 10 µM (NRF2; [10]): 1.82 | fold induction at 10 µM (NRF2; [11]): 1.77 | fold induction at 10 µM (NRF2; [12]): 1.32 | fold induction at 10 µM (NRF2; [13]): 1.46 | F = Potential NRF2 Activation (NRF2; summary score): 0 | ILS at 60 µM (C. elegans; [14]): 14.4% | ILS at 60 µM (C. elegans; [15]): 1.7% | ILS at 60 µM (C. elegans; [16]): 14.7% | ILS at 66 µM (C. elegans; [17]): 14.4% | ILS at 66 µM (C. elegans; [18]): 1.7% | ILS at 66 µM (C. elegans; [19]): 14.7% | O = Life span- extending scores in worms (C. elegans): 1 (1 for lifespan extension observed in 2 trials) | M = Lifespan-extending scores in worms (C. elegans): 1 (1 for lifespan extension observed in 2 trials) | PI cell-death imaging without H2O2 (indicating potential toxicity) (WI-38 cells): YES | Percentage of propidium iodide-positive (dead) cells under normal conditions (qualitative) (WI-38 cells): increased the percentage | PI-positive dead cells under normal conditions (WI-38 cells): 3.5±1.3% | Percentage of propidium iodide-positive dead cells (no H2O2 stress treatment), at 10 uM (WI-38 cells): 3.51% ± 1.28%,

O=C(Nc1cccc(Cl)c1)c1ccc([N+](=O)[O-])o1 [Gr-1D]
L = PARP inhibition (human PARP1): 0 | E = Potential FOXO3 Activation (FOXO3; 2-point score): 0 | fold induction at 10 µM (FOXO3; [1]): 1.13 | fold induction at 10 µM (FOXO3; [2]): 1.91 | fold induction at 10 µM (FOXO3; [3]): > 1.5 | fold induction at 10 µM (FOXO3; 10 μM, 24 hrs, WI-38 cells, qPCR, normalized to B2M, n = 4, read-out: DDB1 expression, normalized fold change (FOXO3-regulated gene)): 1.18 | fold induction at 10 µM (FOXO3; 10 μM, 24 hrs, WI-38 cells, qPCR, normalized to B2M, n = 4, read-out: SESN1 expression, normalized fold change (FOXO3-regulated gene)): 1.73 | fold induction at 10 µM (FOXO3; 10 μM, 24 hrs, WI-38 cells, qPCR, normalized to B2M, n = 4, read-out: TXNIP expression, normalized fold change (FOXO3-regulated gene)): 0.62 | fold induction at 10 µM (FOXO3; [4]): 1.18 | fold induction at 10 µM (FOXO3; [5]): 1.92 | fold induction at 10 µM (FOXO3; [6]): 1.73 | fold induction at 10 µM (FOXO3; fold change, qPCR, WI-38 cells, 10 μM, 24 hrs, read-out: Summary of effects on FOXO3-regulated genes: DDB1): 1.18 | fold induction at 10 µM (FOXO3; fold change, qPCR, WI-38 cells, 10 μM, 24 hrs, read-out: Summary of effects on FOXO3-regulated genes: SESN1): 1.73 | fold induction at 10 µM (FOXO3; fold change, qPCR, WI-38 cells, 10 μM, 24 hrs, read-out: Summary of effects on FOXO3-regulated genes: TXNIP): 0.62 | fold induction at 10 µM (FOXO3; [7]): 0.953 | fold induction at 10 µM (FOXO3; [8]): 1.42 | fold induction at 10 µM (FOXO3; [9]): 0.621 | K = Sestrin induction (FOXO3): 1 | E = Potential FOXO3 Activation (FOXO3; summary score): 0 | F = Potential NRF2 Activation (NRF2; 2-point score): 0 | fold induction at 10 µM (NRF2; rounded fold change, WI-38 cells, 10 μM, 24 hrs (RP11 for Gr-1D, RP29 for Gr-4D), read-out: Summary of effects on NRF2-regulated genes: HMOX1): 4.68 | fold induction at 10 µM (NRF2; 10 μM, 24 hrs, WI-38 cells, qPCR, normalized to B2M, n = 4, read-out: HMOX1 expression, normalized fold change (NRF2-regulated gene)): 4.68 | fold induction at 10 µM (NRF2; [10]): 1.08 | fold induction at 10 µM (NRF2; [11]): 1.17 | fold induction at 10 µM (NRF2; [12]): 4.68 | fold induction at 10 µM (NRF2; [13]): 0.878 | Summary of effects on NRF2-regulated genes: HMOX1, second run (NRF2; run RP42 (Gr-1D) / RP52 (Gr-4D), WI-38 cells, 10 μM): 5.86, | Summary of effects on NRF2-regulated genes: GCLC, second run (NRF2; run RP42 (Gr-1D), WI-38 cells, 10 μM): 0.79, | F = Potential NRF2 Activation (NRF2; summary score): 0 | ILS at 60 µM (C. elegans; [14]): 18.2% | ILS at 60 µM (C. elegans; [15]): -0.5% | ILS at 60 µM (C. elegans; [16]): 10.5% | ILS at 66 µM (C. elegans; [17]): 18.2% | ILS at 66 µM (C. elegans; [18]): -0.5% | ILS at 66 µM (C. elegans; [19]): 10.5% | O = Life span- extending scores in worms (C. elegans): 1 (1 for lifespan extension observed in 2 trials) | M = Lifespan-extending scores in worms (C. elegans): 1 (1 for lifespan extension observed in 2 trials) | PI cell-death imaging without H2O2 (indicating potential toxicity) (WI-38 cells): YES | Percentage of propidium iodide-positive (dead) cells under normal conditions (qualitative) (WI-38 cells): increased the percentage | PI-positive dead cells under normal conditions (WI-38 cells): 4.2±1.4% | Percentage of propidium iodide-positive dead cells (no H2O2 stress treatment), at 10 uM (WI-38 cells): 4.16% ± 1.39%,
